Square brackets hold non-standard residues; d marks the D form. Peptide text beside a SMILES is read from it. * marks the point of attachment. X1 = O=C(O)CC[C@H](NC(=O)N[C@@H](CCCCNC(=O)CCCCCCC(=O)*)C(=O)O)C(=O)O; DOTAGA = O=C(O)CN1CCN(CC(=O)O)CCN(C(CCC(=O)*)C(=O)O)CCN(CC(=O)O)CC1; dPhe(4-NH2) = Nc1ccc(C[C@@H](N)C(=O)O)cc1; dTyr(3-I) = N[C@H](Cc1ccc(O)c(I)c1)C(=O)O; Phe(4-NH2) = Nc1ccc(C[C@H](N)C(=O)O)cc1; d2Nal = N[C@H](Cc1ccc2ccccc2c1)C(=O)O
How the values were obtained:
[1] = target: T1, human serum albumin (HSA) (Homo sapiens, UniProt P02768); format: in vitro ADME
T1 construct: purchased Daicel Chemical Industries, purchased from Chiral Technologies Europe (France)
Text: The Fmoc-(9-fluorenylmethoxycarbonyl-) and all other protected amino acid analogs were purchased from Bachem (Bubendorf, Switzerland) or Iris Biotech (Marktredwitz, Germany). […] The tritylchloride polystyrene (TCP) resin was obtained from PepChem (Tubingen, Germany). Chematech (Dijon, France) delivered the chelator DOTAGA-anhydride. All necessary solvents and other organic reagents were purchased from either Alfa Aesar (Karlsruhe, Germany), Sigma-Aldrich (Munich, Germany) or VWR (Darmstadt, Germany). Solid phase synthesis of the peptides was carried out by manual operation using an Intelli-Mixer syringe shaker (Neolab, Heidelberg, Germany). […] Analysis of the peptides was performed by applying different gradients of 0.1% (v/v) trifluoroacetic acid (TFA) in H2O (solvent A) and 0.1% TFA (v/v) in acetonitrile (MeCN) (solvent B) with a constant flow of 1 mL/min (specific gradients are cited in the text). […] Human serum albumin (HSA) binding was determined using a Chiralpak HSA 50 x 3 mm 5µm Analytical Column connected to a Chiralpak HSA 10 x 3 mm 5µm Guard Cartridge (Daicel Chemical Industries) purchased from Chiral Technologies Europe (France). Nonlinear regression for the HSA binding was performed using OriginPro 2016G. Both retention times tR as well as the capacity factors K' are cited in the text. […] Radioactivity was detected through connection of the outlet of the UV-photometer to a Nal(TI) well-type scintillation counter from EG&G Ortec (Munich, Germany). […] ESI-mass spectra were acquired on an expression^L CMS mass spectrometer (Advion Ltd., Harlow, UK) and on a Varian 500-MS IT mass spectrometer (Agilent Technologies, Santa Clara, USA). For the HSA binding experiment a Chiralpak HSA 50 x 3 mm 5µm Analytical Column, (Daicel Chemical Industries, LTD) connected to a Chiralpak HSA 10 x 3 mm 5µm Guard Cartridge (Daicel Chemical Industries; Chiral Technologies Europe) was used.
The mobile phase was freshly prepared for each experiment and only used for one day. The column was kept at room temperature and each run was stopped after detection of the signal to reduce the acquisition time. All substances were dissolved in a 0.5mg/ml concentration in 50% 2-Propanol and 50% 50mM pH 6.9 ammonium acetate buffer. […] All nine reference substances were injected consecutively to establish a non-linear regression with OriginPro 2016G. […] Table 1: Reference substances used for the calibration of the HSA-column.

[2] = target: PSMA (Homo sapiens, UniProt Q04609); experiment: Determination of IC50: competitive binding against ([125I]I-BA)KuE on cells; design: endogenous in cells; LNCaP is named only for the xenografts; details: for IC50: natLu complexes, displacement of ([125I]I-BA)KuE, 60 min on ice, HBSS (1% BSA)
Protocol: The corresponding ^natLu^III-complexes were prepared from a 2 mM aqueous solution of the PSMA inhibitor with a 2.5 molar excess of LuCl3 (20 mM solution), heated to 95 °C for 30 min. After cooling, the ^natLu^III-chelate formation was confirmed using HPLC and MS. […] Calculated monoisotopic mass (C67H92N11O23 Lu) = 1,593.6 found: m/z = 1,595.0 [M+H]^+, 798.2 [M+2H]^2+. [^natLu]DOTAGA-(4-NH2)f-y-nal-k-KuE ([^natLu]PSMA-5): HPLC (10 to 60% B in 15 min.): tR = 9.0 min K' = 3.5. Calculated monoisotopic mass (C76H102N13O24 Lu) = 1,755.7 found: m/z = 1,756.4 [M+H]^+, 879.0 [M+2H]^2+. [^natLu]DOTAGA-(4-NH2)F-y-nal-k-KuE ([^natLu]PSMA-6): HPLC (10 to 60% B in 15 min.): tR = 9.1 min K' = 3.6. Calculated monoisotopic mass (C76H102N13O24 Lu) = 1,755.7 found: m/z = 1,756.6 [M+H]^+, 878.8 [M+2H]^2+. [^natLu]DOTAGA-y-nal-k(Suc-(HO-δ-orn-γ-EuE))-OH ([^natLu]PSMA-7): HPLC (10 to 60 % B in 15 min): tR = 7.8 min K' = 2.9. Calculated monoisotopic mass (C67H89N12O26 Lu): 1,652.5 found: m/z = 1,653.9 [M+H]^+. [^natLu]DOTAGA-(4-NH2)f-y-nal-k(Suc-(HO-δ-orn-γ-EuE))-OH ([^natLu]PSMA-8): HPLC (10 to 60 % B in 15 min): tR = 7.3 min K' = 2.7. Calculated monoisotopic mass (C67H99N14O27Lu): 1,814.6 found: m/z = 1,815.9 [M+H]^+, 908.3 [M+2H]^2+. [^natLu]DOTAGA-(4-NH2)F-y-nal-k(Suc-(HO-δ-orn-γ-EuE))-OH ([^natLu]PSMA-9): HPLC (10 to 60 % B in 15 min): tR = 7.2 min K' = 2.6. Calculated monoisotopic mass (C67H99N14O27Lu): 1,814.6 found: m/z = 1,815.6 [M+H]^+, 908.3 [M+2H]^2+. [^natLu]DOTAGA-y-nal-k(Glut-(l-f)-KuE) ([^natLu]PSMA-10): HPLC (25 to 55% B in 15 min): tR = 10.6 min K' = 4.9. Calculated monoisotopic mass (C73H94IN12O24Lu): 1,825.5 found: m/z = 1,826.5 [M+H]^+, 913.8 [M+2H]^2+. [^natLu]DOTAGA-(4-NH2)f-y-nal-k(Glut-(l-f)-KuE) ([^natLu]PSMA-11): HPLC (10 to 60% B in 20 min): tR = 9.7 min K' = 3.9. Calculated monoisotopic mass (C82H104IN14O25Lu): 1,986.6 found: m/z = 1,987.5 [M+H]^+, 994.3 [M+2H]^2+.
The reaction solution was incubated for 10 min at RT, loaded on a cartridge and rinsed with 10 mL water (C18 Sep Pak Plus cartridge, preconditioned with 10 mL MeOH and 10 mL water). After elution with 2.0 mL of a 1:1 mix (v/v) of EtOH/MeCN, the radioactive solution was evaporated to dryness under a gentle nitrogen stream and treated with 200 µL TFA for 30 min with subsequent evaporation of TFA.
After removal of the culture medium, the cells were treated once with 500 µL of HBSS (Hank's balanced salt solution, Biochrom, Berlin, Germany, with addition of 1% bovine serum albumin (BSA)) and left 15 min on ice for equilibration in 200 µL HBSS (1% BSA). […] All experiments were performed at least three times for each concentration. After 60 min incubation on ice, the experiment was terminated by removal of the medium and consecutive rinsing with 200 µL of HBSS. The media of both steps were combined in one fraction and represent the amount of free radioligand. Afterwards, the cells were lysed with 250 µL of 1.0 M NaOH and united with the 200 µL HBSS of the following wash step. Quantification of bound and free radioligand was accomplished in a γ-counter.

Sequence of PSMA (Q04609 whole entry): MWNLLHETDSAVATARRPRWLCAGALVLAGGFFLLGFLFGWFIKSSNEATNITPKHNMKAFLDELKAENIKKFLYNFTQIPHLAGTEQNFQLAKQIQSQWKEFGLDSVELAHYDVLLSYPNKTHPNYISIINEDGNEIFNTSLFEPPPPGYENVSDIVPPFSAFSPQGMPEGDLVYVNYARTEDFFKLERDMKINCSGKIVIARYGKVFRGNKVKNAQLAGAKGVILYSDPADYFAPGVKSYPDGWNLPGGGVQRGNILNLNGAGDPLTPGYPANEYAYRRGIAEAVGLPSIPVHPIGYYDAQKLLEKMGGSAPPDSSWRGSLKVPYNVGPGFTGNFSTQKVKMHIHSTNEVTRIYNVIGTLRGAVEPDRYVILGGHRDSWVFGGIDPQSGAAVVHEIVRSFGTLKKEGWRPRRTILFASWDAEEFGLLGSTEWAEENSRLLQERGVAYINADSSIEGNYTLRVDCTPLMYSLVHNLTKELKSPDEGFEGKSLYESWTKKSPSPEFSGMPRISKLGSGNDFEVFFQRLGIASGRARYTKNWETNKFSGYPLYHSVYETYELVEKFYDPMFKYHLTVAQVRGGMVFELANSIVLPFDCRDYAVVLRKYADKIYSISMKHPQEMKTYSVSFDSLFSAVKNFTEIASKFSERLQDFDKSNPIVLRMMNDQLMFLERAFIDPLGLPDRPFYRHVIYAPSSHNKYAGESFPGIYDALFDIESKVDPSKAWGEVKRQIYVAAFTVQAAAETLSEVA
T1 sequence (P02768 25-609): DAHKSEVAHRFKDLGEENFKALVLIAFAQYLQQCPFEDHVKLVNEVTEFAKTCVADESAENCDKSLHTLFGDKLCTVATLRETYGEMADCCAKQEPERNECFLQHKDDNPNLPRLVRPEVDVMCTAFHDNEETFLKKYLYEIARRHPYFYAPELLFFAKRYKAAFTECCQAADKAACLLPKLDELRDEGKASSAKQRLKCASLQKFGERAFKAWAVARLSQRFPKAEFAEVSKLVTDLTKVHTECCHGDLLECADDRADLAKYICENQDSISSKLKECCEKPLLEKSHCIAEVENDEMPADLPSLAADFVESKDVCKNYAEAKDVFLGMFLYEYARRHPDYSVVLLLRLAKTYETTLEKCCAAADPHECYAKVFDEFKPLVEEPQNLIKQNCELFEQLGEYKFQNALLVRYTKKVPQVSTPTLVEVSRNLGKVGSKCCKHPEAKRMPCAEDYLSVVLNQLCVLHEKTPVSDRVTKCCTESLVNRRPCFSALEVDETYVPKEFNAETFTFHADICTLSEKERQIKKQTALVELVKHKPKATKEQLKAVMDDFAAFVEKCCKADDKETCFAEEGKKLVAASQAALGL

SMILES | IC50 [2] [nM] | affinity, fold higher than [Lu]PSMA DKFZ 617 ([2]; relative to [Lu]PSMA DKFZ 617) | affinity, fold higher than [Lu]PSMA I&T ([2]; relative to [Lu]PSMA I&T) | HSA [%] [1] [%]
Nc1ccc(C[C@H](NC(=O)CCC(C(=O)O)N2CCN(CC(=O)O)CCN(CC(=O)O)CCN(CC(=O)O)CC2)C(=O)N[C@H](Cc2ccc(O)c(I)c2)C(=O)N[C@H](Cc2ccccc2)C(=O)N[C@H](CCCCNC(=O)CCCCCCC(=O)NCCCC[C@H](NC(=O)N[C@@H](CCC(=O)O)C(=O)O)C(=O)O)C(=O)O)cc1 (stereo partly drawn) [[^nat/177Lu]PSMA-3, DOTAGA-(4-NH2)F-(l-y)-f-k-KuE, metal not drawn] ({DOTAGA}-[Phe(4-NH2)][dTyr(3-I)][dF][dK](X1)-OH) | 2.8 ± 0.3 | – | – | 91.9
Nc1ccc(C[C@@H](NC(=O)CCC(C(=O)O)N2CCN(CC(=O)O)CCN(CC(=O)O)CCN(CC(=O)O)CC2)C(=O)N[C@H](Cc2ccc(O)c(I)c2)C(=O)N[C@H](Cc2ccccc2)C(=O)N[C@H](CCCCNC(=O)CCCCCCC(=O)NCCCC[C@H](NC(=O)N[C@@H](CCC(=O)O)C(=O)O)C(=O)O)C(=O)O)cc1 (stereo partly drawn) [[^nat/177Lu]PSMA-2, DOTAGA-(4-NH2)f-(l-y)-f-k-KuE, metal not drawn] ({DOTAGA}-[dPhe(4-NH2)][dTyr(3-I)][dF][dK](X1)-OH) | 2.3 ± 0.6 | – | – | 82.5

Further lines, with some results ahead:

IC50 [2] [nM] | affinity, fold higher than [Lu]PSMA DKFZ 617 ([2]; relative to [Lu]PSMA DKFZ 617) | affinity, fold higher than [Lu]PSMA I&T ([2]; relative to [Lu]PSMA I&T) | SMILES | HSA [%] [1] [%]
2.1 ± 0.8 | – | – | O=C(O)CC[C@H](NC(=O)N[C@@H](CCCCNC(=O)CCCCCCC(=O)NCCCC[C@@H](NC(=O)[C@@H](Cc1ccc2ccccc2c1)NC(=O)[C@@H](Cc1ccc(O)cc1)NC(=O)CCC(C(=O)O)N1CCN(CC(=O)O)CCN(CC(=O)O)CCN(CC(=O)O)CC1)C(=O)O)C(=O)O)C(=O)O (stereo partly drawn) [[^nat/177Lu]PSMA-4, DOTAGA-y-nal-k-KuE, metal not drawn, reference compound] | 82.6
1.1 ± 0.1 | more than 3 fold | around 7 fold | Nc1ccc(C[C@H](NC(=O)CCC(C(=O)O)N2CCN(CC(=O)O)CCN(CC(=O)O)CCN(CC(=O)O)CC2)C(=O)N[C@H](Cc2ccc(O)cc2)C(=O)N[C@H](Cc2ccc3ccccc3c2)C(=O)N[C@H](CCCCNC(=O)CCCCCCC(=O)NCCCC[C@H](NC(=O)N[C@@H](CCC(=O)O)C(=O)O)C(=O)O)C(=O)O)cc1 (stereo partly drawn) [[^nat/177Lu]PSMA-6, DOTAGA-(4-NH2)F-y-nal-k-KuE, metal not drawn] ({DOTAGA}-[Phe(4-NH2)][dY][d2Nal][dK](X1)-OH) | 83.17
6.1 ± 1.6 | – | – | O=C(O)CC[C@H](NC(=O)N[C@@H](CCCCNC(=O)[C@@H](Cc1ccc(I)cc1)NC(=O)CCCC(=O)NCCCC[C@@H](NC(=O)[C@@H](Cc1ccc2ccccc2c1)NC(=O)[C@@H](Cc1ccc(O)cc1)NC(=O)CCC(C(=O)O)N1CCN(CC(=O)O)CCN(CC(=O)O)CCN(CC(=O)O)CC1)C(=O)O)C(=O)O)C(=O)O (stereo partly drawn) [[^nat/177Lu]PSMA-10, DOTAGA-y-nal-k(Glut-(l-f)-KuE), metal not drawn, reference compound] | 96.61

From EP3494999A1, “PSMA LIGANDS FOR IMAGING AND ENDORADIOTHERAPY” (Technische Universität München, priority 2017, dated 2019)
